{
  "source": "patent US9534221B2",
  "about": "“Targeting the steroidogenic pathway for treating and/or preventing allergic diseases” (National Jewish Health, priority 2013, dated 2017)",
  "key": {"[1]": {"system": "OVA-sensitized CD8-deficient mice", "test": "Secondary allergen challenge model with adoptive transfer of CD8+ T cells", "type": "in vivo, mouse", "experimental": "The experimental protocol for sensitization and challenge to OVA was as described previously (Oka, H. et al. Cell. Immunol. 206, 7-15 (2000); Sundrud, M. S, and Nolan, M. A. Curr. Opin. Immunol. 22, 286-292 (2010)), with some modification. CD8-deficient mice were sensitized with 20 μg of OVA (Calbiochem, La Jolla, Calif.) emulsified in 2.25 mg of alum (AlumImuject; Pierce, Rockford, Ill.) on days 0 and 14 by intraperitoneal injection. Mice were challenged with 0.2% OVA for 20 minutes on days 21, 22, and 23 using an ultrasonic nebulizer (model NE-U07; Omron Healthcare, Kyoto, J P). […] Two hours after transfer, mice were challenged (secondary) with 1% OVA for 20 minutes. Airway function was measured and samples were collected on day 38. Airway function was assessed as described previously (Oka, H. et al. Cell. Immunol. 206, 7-15 (2000); Sundrud, M. S, and Nolan, M. A. Curr. Opin. Immunol. 22, 286-292 (2010)) by measuring changes in airway resistance (RL) in response to increasing doses of inhaled methacholine (Sigma, St. Louis, Mo.). Data were presented as percentage change from the baseline RL values after saline inhalation. […] After measurement of AHR, lungs were lavaged via the tracheal tube with 1 ml of HBSS. The supernatants were collected and IL-4, IL-5, and IL-13 (eBioscience, San Diego, Calif.) levels were measured by ELISA as described previously. Total leukocyte numbers were counted and differentiated as described previously (Oka, H. et al. Cell. Immunol. 206, 7-15 (2000); Sundrud, M. S, and Nolan, M. A. Curr. Opin. Immunol. 22, 286-292 (2010)). Mouse lungs were isolated and fixed in 10% formalin, then embedded in paraffin and cut into 5-μm thick tissue sections. Sections were stained with periodic acid-Schiff (PAS) and mucus-containing cells were quantitated as previously described (Oka, H. et al. Cell. Immunol. 206, 7-15 (2000); Sundrud, M. S, and Nolan, M. A. Curr. Opin. Immunol. 22, 286-292 (2010)). For some experiments, lung tissue expression of Cyp11a1 was identified by immunohistochemistry staining using anti-human Cyp11a1 antibody."}, "[2]": {"system": "CD4 T cells", "test": "Th1, Th2, Th17 differentiation of naive CD4 T cells in vitro", "type": "cell-based, mouse", "experimental": "Levels of IL-4, IL-13, IL-17A, and IFN-γ in cell culture supernatants were measured by ELISA (eBioscience, San Diego, Calif.) as described by the manufacturer. Pregnenolone levels in serum and cell culture supernatants were measured by ELISA (ALPCO Diagnostics, Salem, N.H.), as described by the manufacturer. Differentiation of Th1, Th2, or Th17 cells was performed as previously described with minor changes (Ashino, S., et al. Intl. Immunol. 22:503-513 (2010)). CD4^+CD45RB^+ T cells were isolated from naive TCR-transgenic mice (OT II mice) spleen using a cell sorter (MoFlo XDP, Beckman Coulter). In the presence of mitomycin-C-treated spleen cells, 5 μg/ml OVA323-339 peptide, and the inhibitor AMG ([…]), isolated naive CD4 T cells were cultured with rmIL-2 (10 ng/ml, R/D Systems), rmIL-12 (10 ng/ml, Peprotech), rmIFN-γ (5 ng/ml, Peprotech), and anti-IL-4 mAbs (10 μg/ml, eBioscience) to induce Th1 cell differentiation; with rmIL-2 (10 ng/ml, R/D Systems), rmIL-4 (5 ng/ml, Peprotech), and anti-IFN-γ mAb (10 μg/ml, eBioscience) for differentiation of Th2 cells; and […], Peprotech), anti-IL-4 mAb (10 μg/ml, eBioscience), and anti-IFN-γ mAb (10 μg/ml, eBioscience) for differentiation of Th17 cells. After 6 days of culture, the cells were washed with fresh medium and restimulated with anti-CD3/anti-CD28 for 24 hrs for assay of cytokine production. The cells were collected for quantitative RT-PCR and Western blot. In some experiments (for transduction experiment), the cells were cultured under Th1, Th2, and Th17 polarizing conditions for 5 days as described in Methods. Cultured cells were lysed as previously described (Ohnishi, H., et al. J. Allergy Clin. Immunol. 121:864-871 (2008)). Lysates were resolved by means of SDS-PAGE and transferred to nitrocellulose membranes. Proteins were detected using antibodies specific for Cyp11a1 (LifeSpan Biosciences. Seattle, Wash.) followed by chemiluminescence detection (GE Healthcare, Little Chalfont, UK). RNA was extracted from jejunal tissue homogenates or from CD4 T cells cultured in vitro using Trizol (Invitrogen). cDNA was generated using the iScript cDNA synthesis kit (Bio-Rad Laboratories, Hercules, Calif.). Quantitative real-time PCR was performed on the ABI Prism 7300 sequence detection system (Applied Biosystems, Foster City, Calif.). All primers and probes used were purchased as Tagman Gene Expression Assays from Applied Biosystems. Fold change was calculated using the Delta Delta cycle threshold (ΔΔCT) method."}, "[3]": {"conditions": "recipients of AMG-treated vs untreated CD8+ T cells"}, "[4]": {"conditions": "recipients of CD8+ T cells pretreated with AMG vs untreated cells"}, "[5]": {"conditions": "polarized Th1, Th2 or Th17 cells, AMG 400 μM"}},
  "data": [
    {"smiles": "CCC1(c2ccc(N)cc2)CCC(=O)NC1=O", "note": "(stereo not drawn) [AMG, aminoglutethimide]", "values": [
      {"measurement": "Cyp11a1-positive cells in the lung", "setting": "[1]; recipients of AMG-treated cells", "result": "few Cyp11a1-positive cells"},
      {"measurement": "IL-4 level in BAL fluid", "setting": "[1]; [3]", "result": "significantly lower"},
      {"measurement": "IL-5 level in BAL fluid", "setting": "[1]; [3]", "result": "significantly lower"},
      {"measurement": "IL-13 level in BAL fluid", "setting": "[1]; [3]", "result": "significantly lower"},
      {"measurement": "Lung inflammation (histology)", "setting": "[1]; [4]", "result": "less inflammation"},
      {"measurement": "Numbers of PAS+ mucus-containing goblet cells in lung", "setting": "[1]; [4]", "result": "significantly decreased"},
      {"measurement": "AHR (changes in airway resistance RL)", "setting": "[1]; transfer of 5×10^6 CD8+ T cells differentiated in IL-2 with AMG (500 μM)", "result": "failed to restore AHR or airway inflammation"},
      {"measurement": "Airway inflammation (cell composition in BAL fluid)", "setting": "[1]; transfer of CD8+ T cells differentiated in IL-2 with AMG (500 μM)", "result": "failed to restore AHR or airway inflammation"},
      {"measurement": "IFNG mRNA expression", "setting": "[2]; Th1 cells", "result": "no significant effects"},
      {"measurement": "Pregnenolone levels in culture supernates", "setting": "[2]; Th2 cells, AMG 400 μM", "result": "significantly decreased"},
      {"measurement": "Pregnenolone levels in culture supernates", "setting": "[2]; Th17 cells, AMG 400 μM", "result": "the decreases did not reach statistical significance"},
      {"measurement": "Cyp11a1 mRNA expression levels", "setting": "[2]; [5]", "result": "did not suppress"},
      {"measurement": "Cyp11a1 protein expression levels", "setting": "[2]; [5]", "result": "did not suppress"},
      {"measurement": "IFN-γ levels in culture supernatants", "setting": "[2]; polarized Th1 cell cultures", "result": "not affected"},
      {"measurement": "T-bet mRNA expression", "setting": "[2]; polarized Th1 cells, 400 μM", "result": "did not have any effect"},
      {"measurement": "IL-13 levels in culture supernatants", "setting": "[2]; polarized Th2 cell cultures", "result": "decreased"},
      {"measurement": "IL13 mRNA", "setting": "[2]; polarized Th2 cells", "result": "decreased"},
      {"measurement": "GATA3 mRNA expression", "setting": "[2]; polarized Th2 cells, 400 μM", "result": "did not have any effect"},
      {"measurement": "IL-17A levels in culture supernatants", "setting": "[2]; polarized Th17 cell cultures", "result": "decreased"},
      {"measurement": "IL17A mRNA", "setting": "[2]; polarized Th17 cells", "result": "decreased"},
      {"measurement": "RORγt mRNA expression", "setting": "[2]; polarized Th17 cells, 400 μM", "result": "did not have any effect"}
    ]}
  ]
}
